Our source for the inhibition, EC50 and Ki values is ChEMBL document CHEMBL4028877, “Targets for Drug Therapy for Autism Spectrum Disorder: Challenges and Future Directions” (J Med Chem, 2017).

Assay [1] concerns the target Glutamate receptor ionotropic, NMDA 2A (Rattus norvegicus) (UniProt Q00959). The assay can be described thus: Antagonist activity at GluN2A in rat primary pyramidal neurons assessed as inhibition of NMDA/glycine-induced current amplitude at 10 uM at holding potential of -70 mV by patch-clamp electrophysiology assay. Background: Patch clamp records ionic current or voltage across a cell membrane.

The target is the same in assay [2]. Briefly: Antagonist activity at GluN2A in CA1 region of Sprague-Dawley rat hippocampal slices assessed as inhibition of schaffer collateral input-stimulated field excitatory postsynaptic potential at 30 to 50 uM after 40 mins by electrophysiology assay.
The target of assay [3] is T1, Oxytocin receptor (Mus musculus, UniProt P97926).
T1 sequence (P97926 whole entry): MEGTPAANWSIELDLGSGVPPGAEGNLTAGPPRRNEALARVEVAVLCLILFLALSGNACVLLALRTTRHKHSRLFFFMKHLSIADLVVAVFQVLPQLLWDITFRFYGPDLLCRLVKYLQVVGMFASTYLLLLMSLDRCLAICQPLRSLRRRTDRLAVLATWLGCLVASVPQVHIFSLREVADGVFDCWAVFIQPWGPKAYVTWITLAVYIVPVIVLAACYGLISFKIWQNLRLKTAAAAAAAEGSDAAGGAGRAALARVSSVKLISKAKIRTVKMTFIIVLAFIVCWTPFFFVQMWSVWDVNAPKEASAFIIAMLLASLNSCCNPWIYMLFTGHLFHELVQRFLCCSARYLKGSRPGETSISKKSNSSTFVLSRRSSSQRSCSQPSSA
Briefly: Agonist activity at recombinant mouse OTR expressed in CHO-K1 cells assessed as induction of Ca2+ mobilization after overnight incubation by FLIPR assay. It is filed as functional, cell-based. In general terms: Calcium flux is commonly read through the fluorescence of an indicator in the cells.

Assay [4] concerns the target T1, Oxytocin receptor. The assay can be described thus: Displacement of [Tyrosyl-2,6-3H]Oxytocin from recombinant mouse OTR expressed in CHO-K1 cells after 180 mins by liquid scintillation counting method. The format is cell-based.

Chain of Glutamate receptor ionotropic, NMDA 2A (Rattus norvegicus) (Q00959 23-1464 limits assumed): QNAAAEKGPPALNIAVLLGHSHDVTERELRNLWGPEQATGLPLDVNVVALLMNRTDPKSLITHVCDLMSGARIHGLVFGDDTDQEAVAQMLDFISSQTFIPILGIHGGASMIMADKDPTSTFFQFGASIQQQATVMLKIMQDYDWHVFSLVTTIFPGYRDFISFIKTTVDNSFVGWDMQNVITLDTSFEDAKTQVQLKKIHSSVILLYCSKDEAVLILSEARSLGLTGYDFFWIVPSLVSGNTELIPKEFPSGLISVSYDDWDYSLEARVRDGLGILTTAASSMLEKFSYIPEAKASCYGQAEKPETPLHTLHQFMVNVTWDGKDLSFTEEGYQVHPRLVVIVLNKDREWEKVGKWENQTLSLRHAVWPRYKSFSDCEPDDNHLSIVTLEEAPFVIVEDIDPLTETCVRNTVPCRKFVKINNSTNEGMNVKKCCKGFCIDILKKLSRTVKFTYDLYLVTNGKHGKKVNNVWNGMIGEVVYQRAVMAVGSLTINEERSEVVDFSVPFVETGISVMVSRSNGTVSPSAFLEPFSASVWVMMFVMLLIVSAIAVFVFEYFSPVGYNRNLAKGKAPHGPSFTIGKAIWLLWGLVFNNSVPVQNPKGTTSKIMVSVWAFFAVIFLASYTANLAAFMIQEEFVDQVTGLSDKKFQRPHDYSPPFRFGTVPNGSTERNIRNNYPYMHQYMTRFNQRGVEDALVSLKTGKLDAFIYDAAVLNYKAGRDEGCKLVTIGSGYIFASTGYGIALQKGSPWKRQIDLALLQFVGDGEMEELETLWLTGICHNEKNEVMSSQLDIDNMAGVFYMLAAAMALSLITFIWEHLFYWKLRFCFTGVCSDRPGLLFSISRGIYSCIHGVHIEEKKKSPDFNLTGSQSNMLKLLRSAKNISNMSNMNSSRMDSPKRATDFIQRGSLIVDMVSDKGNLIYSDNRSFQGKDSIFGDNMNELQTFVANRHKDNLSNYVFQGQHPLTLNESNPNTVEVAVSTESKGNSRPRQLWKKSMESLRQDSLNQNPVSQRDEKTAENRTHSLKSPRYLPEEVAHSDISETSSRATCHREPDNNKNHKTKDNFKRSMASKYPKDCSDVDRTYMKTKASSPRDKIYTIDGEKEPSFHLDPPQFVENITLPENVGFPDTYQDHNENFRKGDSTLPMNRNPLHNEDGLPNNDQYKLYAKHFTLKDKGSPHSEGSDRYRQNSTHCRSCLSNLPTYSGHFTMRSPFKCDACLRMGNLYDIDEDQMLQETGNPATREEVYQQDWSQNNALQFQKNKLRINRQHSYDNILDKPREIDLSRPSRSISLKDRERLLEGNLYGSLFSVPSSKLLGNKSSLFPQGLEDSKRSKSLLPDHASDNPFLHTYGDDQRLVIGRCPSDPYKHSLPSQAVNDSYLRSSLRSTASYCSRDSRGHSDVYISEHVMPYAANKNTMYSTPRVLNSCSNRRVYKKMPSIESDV

By inhibition is commonly meant the relative decrease from the control value, in per cent. Take `Cc1ncc(CNC(=O)c2cnc(CNS(=O)(=O)c3ccc(F)c(Cl)c3)cn2)s1`: the inhibition came to 30% in assay [1] and 60% in assay [2].
Broadly, the EC50 is the concentration giving half of the maximal effect. A word on the Ki: it is a dissociation constant, usually derived from enzyme kinetics or from competition with a known ligand. As for `Cc1cc(C(=O)N2Cc3cnn(C)c3Nc3ccccc32)ccc1CNC(=O)N1CCN(Cc2cc(O)cc(O)c2)CC1`, at Oxytocin receptor [3], the 50% effective concentration (EC50) came to 29 nM. Besides, the Ki on Oxytocin receptor [4] stood at 51.6 nM.
As to `Cc1ncc(CNC(=O)c2cnc(CNS(=O)(=O)c3ccc(F)c(F)c3)c(C)n2)s1`, the figures for the inhibition in assay [1] and in assay [2] were 30% and 60%, respectively.
